{"source": "patent US20220177471A1", "about": "“N-1 BRANCHED ALKYL SUBSTITUTED IMIDAZO[4,5-C]QUINOLINE COMPOUNDS, COMPOSITIONS, AND METHODS” (3M INNOVATIVE PROPERTIES COMPANY, priority 2019, published 2022)", "tested_on": "Human peripheral blood mononuclear cells (PBMC)", "experiment": "Cytokine induction in human cells (PBMC), cytokines by ELISA / multiplex bead assay", "format": "cell-based", "details": "for minimal effective concentration: human PBMC, 21-24 hours, lowest concentration giving cytokine level at least 2x negative control", "method": "Whole blood was obtained from healthy human donors and collected by venipuncture into vacutainer tubes or syringes containing EDTA. Human peripheral blood mononuclear cells (PBMC) were purified from the whole blood by density gradient centrifugation. Histopaque 1077 (15 mL, Sigma, St. Louis, Mo.) was transferred to 6×50 mL sterile polypropylene conical tubes. The Histopaque was overlayed with 15-25 mL of blood diluted 1:2 in Hank's Balanced Salts Solution (HBSS) (Gibco, Life Technologies, Grand Island, N.Y.). The tubes were then centrifuged at 1370 revolutions per minute (rpm) for 30 minutes at 20° C., with no brake (400×g, GH 3.8 A Rotor).\nThe interface (buffy coat) containing the PBMC was collected and placed in a new sterile 50 mL conical polypropylene centrifuge tube. The PBMC were mixed with an equal volume of HBSS (about 20 mL from the interface and about 20 mL of HBSS), and then centrifuged at 1090 rpm, 10 minutes, 20° C., with brake (270×g, GH 3.8 A Rotor). After completing centrifugation, the cells were resuspended in 2-3 mL ACK Red blood cell lysis buffer (ammonium chloride potassium solution, Gibco, Life Technologies) and incubated for 2-5 minutes at 20° C. Next, HBSS (40 mL) was added to the cells, and the sample was centrifuged at 270×g for 10 minutes at 20° C. The supernatant was decanted, and the cell pellet was resuspended in 5 mL AIM V Medium (Gibco, Life Technologies). Cell aggregates and debris were removed by filtering the cell solution through a BD Falcon 70 micron nylon cell strainer (BD Biosciences, San Jose, Calif.).\nThe number of viable cells was determined by counting with a Miltenyi FACS instrument (Miltenyi Biotec Inc., San Diego, Calif.) or by using a hemacytometer. For determining cell viability with a hemacytometer, the cells were diluted 1/10 in 0.4% trypan blue and HBSS (specifically, 50 microliter of trypan blue+40 microliter of HBSS+10 microliter of cell solution were added to a microfuge tube and mixed). Ten microliters of the diluted cells were then applied to the hemacytometer, and the number of viable PBMC were determined by microscopy.\nThe PBMC sample was then resuspended in 96-well plates at a concentration of 8×10^5 cells/well in 0.1 mL of AIM-V medium. Each compound was solubilized in dimethyl sulfoxide (DMSO) to create a 3 mM stock solution. The stock solution was then further diluted with AIM-V medium to prepare the serial dilutions. The diluted compound (100 microliters) was then transferred to the PBMCs to produce testing sets with final compound concentrations of either 30, 10, 3.3, 1.1, 0.37, 0.12, 0.04, 0.01 micromolar (testing set A); 100, 30, 10, 3.3, 1.1, 0.37, 0.12, 0.04, 0.01, 0.005 micromolar (testing set B); 100, 33.3, 11.1, 3.7, 1.2, 0.41 micromolar (testing set C); or 100, 50, 30, 10, 3.3, 1.1, 0.37, 0.12, 0.04 micromolar (testing set D). The plates also had both positive and negative controls. The negative control wells contained only AIM-V medium with no example compound. The positive control wells contained a control set of imiquimod serially diluted to concentrations of either 30, 10, 3.3, 1.1, 0.37, 0.12, 0.04, 0.01 micromolar (control set A); 100, 30, 10, 3.3, 1.1, 0.37, 0.12, 0.04, 0.01, 0.005 micromolar (control set B); 100, 33.3, 11.1, 3.7, 1.2, 0.41 micromolar (control set C); or 100, 50, 30, 10, 3.3, 1.1, 0.37, 0.12, 0.04 micromolar (control set D). The concentrations used in the control set were selected to match the concentrations used in the testing set. The plates were then cultured at 37° C./5% CO2 for 21-24 hours. Cell-free supernatants were harvested by centrifuging the 96-well plates at 2100 rpm, 23° C. for 10 minutes. Approximately 160 microliters of the supernatant was then stored in a NUNC 96-well plate, covered with the compression cap and stored at −80° C. until the cytokine analysis was done.\nIFN-alpha cytokine levels (picograms/mL) were measured by ELISA (human IFN-alpha, pan specific, Mabtech, Cincinnati, Ohio). […]", "note": "Where two headings read alike, the source gives them in different places.", "data": [{"smiles": "C[C@H](n1cnc2c(N)nc3ccccc3c21)C(C)(C)F", "note": "[Example 21, 1-[(1S)-2-fluoro-1,2-dimethyl-propyl]imidazo[4,5-c]quinolin-4-amine]", "values": [{"measurement": "cytokine production (statement in words)", "setting": "IFN-alpha, IFN-gamma, TNF-alpha", "value": "inactive toward cytokine production"}, {"measurement": "minimal effective concentration", "setting": "ELISA, read-out: MEC to Induce Cytokine: IFN-alpha", "value": "> 100", "unit": "µM"}, {"measurement": "minimal effective concentration", "setting": "multiplex bead assay, read-out: MEC to Induce Cytokine: IFN-gamma", "value": "> 100", "unit": "µM"}, {"measurement": "minimal effective concentration", "setting": "multiplex bead assay, read-out: MEC to Induce Cytokine: TNF-alpha", "value": "> 100", "unit": "µM"}]}]}
